Source: PubChem BioAssay AID330 (DTP/NCI, 2004)
Several values for one entry are separate records, joined by “and”; a condition that tells them apart may be missing. Identical values can stand only once. Toxic doses and inconclusive results are not listed. How the source made its calls: active means survival T/C of 150% or more; inactive means T/C below 125% in these data.

System: P388 leukemia ip, CD2F1 mice, survival T/C
Experiment: NCI In Vivo Anticancer Drug Screen. Data for tumor model P388 Leukemia (intraperitoneal) in CD2F1 (CDF1) mice
Details: endpoint: median survival time, higher = longer survival
How it was run: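 Mice carrying the transplanted tumor received test compound or vehicle. Survival was recorded in each group, and the value is the treated-group measurement divided by that of the vehicle-treated control group.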

[1] = dose: 50.0 mg/kg/injection, schedule: Q01DX005 (ip), vehicle: Klucel (hydroxypropylcellulose) (HPC)
[2] = dose: 100.0 mg/kg/injection, schedule: Q01DX005 (ip), vehicle: Klucel (hydroxypropylcellulose) (HPC)
[3] = dose: 200.0 mg/kg/injection, schedule: Q01DX005 (ip), vehicle: Klucel (hydroxypropylcellulose) (HPC)
[4] = dose: 50.0 mg/kg/injection, schedule: Q01DX009 (ip), vehicle: Klucel (hydroxypropylcellulose) (HPC)
[5] = dose: 100.0 mg/kg/injection, schedule: Q01DX009 (ip), vehicle: Klucel (hydroxypropylcellulose) (HPC)
[6] = dose: 200.0 mg/kg/injection, schedule: Q01DX009 (ip), vehicle: Klucel (hydroxypropylcellulose) (HPC)
[7] = dose: 50.0 mg/kg/injection, schedule: Q01DX005 (ip), vehicle: saline
[8] = dose: 100.0 mg/kg/injection, schedule: Q01DX005 (ip), vehicle: saline
[9] = dose: 200.0 mg/kg/injection, schedule: Q01DX005 (ip), vehicle: saline
[10] = dose: 100.0 mg/kg/injection, schedule: Q01DX001 (ip), vehicle: Klucel (hydroxypropylcellulose) (HPC)
[11] = dose: 200.0 mg/kg/injection, schedule: Q01DX001 (ip), vehicle: Klucel (hydroxypropylcellulose) (HPC)
[12] = dose: 400.0 mg/kg/injection, schedule: Q01DX001 (ip), vehicle: Klucel (hydroxypropylcellulose) (HPC)
[13] = dose: 6.25 mg/kg/injection, schedule: Q01DX009 (ip), vehicle: Klucel (hydroxypropylcellulose) (HPC)
[14] = dose: 12.5 mg/kg/injection, schedule: Q01DX009 (ip), vehicle: Klucel (hydroxypropylcellulose) (HPC)
[15] = dose: 25.0 mg/kg/injection, schedule: Q01DX009 (ip), vehicle: Klucel (hydroxypropylcellulose) (HPC)

Measured: T/C

O=[N+]([O-])c1ccc(N2CCOCC2)c2c1no[n+]2[O-]
inactive: dose: 8.0 mg/kg/injection, schedule: Q04DX003 (ip), vehicle: suspension in saline 98 % of control | dose: 16.0 mg/kg/injection, schedule: Q04DX003 (ip), vehicle: suspension in saline 105 % of control | dose: 32.0 mg/kg/injection, schedule: Q04DX003 (ip), vehicle: suspension in saline 99 % of control | dose: 64.0 mg/kg/injection, schedule: Q04DX003 (ip), vehicle: suspension in saline 123 % of control

C/C(=N\NC(=S)Nc1nccs1)c1ccccn1
inactive: dose: 100.0 mg/kg/injection, schedule: Q04DX003 (ip), vehicle: Klucel (hydroxypropylcellulose) (HPC) 99 % of control | dose: 200.0 mg/kg/injection, schedule: Q04DX003 (ip), vehicle: Klucel (hydroxypropylcellulose) (HPC) 105 % of control | dose: 400.0 mg/kg/injection, schedule: Q04DX003 (ip), vehicle: Klucel (hydroxypropylcellulose) (HPC) 96 % of control

[O-]c1ccc[n+]2c1sc1ncccc12 (tested in a mixture with another compound)
inactive: dose: 50.0 mg/kg/injection, schedule: Q01DX005 (ip), vehicle: saline with Tween-80 107 % of control | dose: 100.0 mg/kg/injection, schedule: Q01DX005 (ip), vehicle: saline with Tween-80 107 % of control | dose: 200.0 mg/kg/injection, schedule: Q01DX005 (ip), vehicle: saline with Tween-80 105 % of control

O=C(NCCc1ccccc1Br)c1ccccc1
inactive: [1] 100 % of control | [2] 97 % of control | [3] 93 % of control

CCO/C=C1\SC(=S)N(c2ccc(O)cc2)C1=O
inactive: dose: 100.0 mg/kg/injection, schedule: Q04DX003 (ip), vehicle: saline 113 % of control | dose: 200.0 mg/kg/injection, schedule: Q04DX003 (ip), vehicle: saline 113 % of control | dose: 400.0 mg/kg/injection, schedule: Q04DX003 (ip), vehicle: saline 109 % of control

CN(C)C(=O)Nc1cccc2c(NC(=O)N(C)C)cccc12
inactive: [4] 100 % of control and 103 % of control | [5] 100 % of control (2×) and 93 % of control | [6] 99 % of control and 87 % of control | dose: 400.0 mg/kg/injection, schedule: Q01DX009 (ip), vehicle: Klucel (hydroxypropylcellulose) (HPC) 91 % of control

CC(N)C(=O)NCC(=O)NCC(=O)O (stereo not given)
inactive: [7] 100 % of control | [8] 106 % of control | [9] 99 % of control

CCC(=O)OC1C(OC2C(C)C(OC3CC(C)(OC)C(O)C(C)O3)C(C)C(=O)OC(CC)C(C)(O)C(O)C(C)C(=O)C(C)CC2(C)O)OC(C)CC1N(C)C (stereo not given)
inactive: dose: 50.0 mg/kg/injection, schedule: Q01DX009 (ip), vehicle: saline 105 % of control | dose: 100.0 mg/kg/injection, schedule: Q01DX009 (ip), vehicle: saline 97 % of control | dose: 200.0 mg/kg/injection, schedule: Q01DX009 (ip), vehicle: saline 92 % of control

COC(=O)Nc1nc2c(OC)c(OC)c(OC)cc2[nH]1
inactive: dose: 12.5 mg/kg/injection, schedule: Q01DX005 (ip), vehicle: other 97 % of control | dose: 25.0 mg/kg/injection, schedule: Q01DX005 (ip), vehicle: other 100 % of control | dose: 50.0 mg/kg/injection, schedule: Q01DX005 (ip), vehicle: other 100 % of control | dose: 100.0 mg/kg/injection, schedule: Q01DX005 (ip), vehicle: other 102 % of control

Cc1c(Cl)cc([N+](=O)[O-])cc1S(=O)(=O)Oc1ccccc1
inactive: [10] 103 % of control | [11] 108 % of control | [12] 100 % of control

CC(C)(Oc1ccc(-c2cccc3ccccc23)cc1)C(=O)O
inactive: [13] 97 % of control | [14] 95 % of control | [15] 101 % of control | [5] 111 % of control | [6] 119 % of control

O=c1[nH]cc(-c2ccccc2)c(=O)[nH]1
inactive: [10] 100 % of control | [11] 98 % of control | [12] 96 % of control

O=C(NC(c1ccccc1)c1cccs1)c1cccs1 (stereo not given)
inactive: [1] 99 % of control | [2] 99 % of control | [3] 103 % of control

O=C(Nc1ccc(N=Nc2ccc3cc(S(=O)(=O)O)cc(S(=O)(=O)O)c3c2)cc1)c1ccc(N=Nc2c(O)ccc3cc(S(=O)(=O)O)cc(S(=O)(=O)O)c23)cc1
inactive: [7] 104 % of control | [8] 99 % of control | [9] 98 % of control

O=Cc1ccc([N+](=O)[O-])[nH]1
inactive: dose: 12.5 mg/kg/injection, schedule: Q01DX009 (ip), vehicle: saline with Tween-80 92 % of control | dose: 25.0 mg/kg/injection, schedule: Q01DX009 (ip), vehicle: saline with Tween-80 87 % of control | dose: 50.0 mg/kg/injection, schedule: Q01DX009 (ip), vehicle: saline with Tween-80 92 % of control | dose: 100.0 mg/kg/injection, schedule: Q01DX009 (ip), vehicle: saline with Tween-80 86 % of control

Oc1ccccc1C=NCc1ccccc1.[CH-]=C([CH2-])C.[Pd+2]
inactive: [13] 107 % of control | dose: 6.25 mg/kg/injection, schedule: Q04DX003 (ip), vehicle: Klucel (hydroxypropylcellulose) (HPC) 92 % of control | [14] 106 % of control | dose: 12.5 mg/kg/injection, schedule: Q04DX003 (ip), vehicle: Klucel (hydroxypropylcellulose) (HPC) 113 % of control | [15] 106 % of control | dose: 25.0 mg/kg/injection, schedule: Q04DX003 (ip), vehicle: Klucel (hydroxypropylcellulose) (HPC) 111 % of control

O=c1[nH]c2cc([N+](=O)[O-])ccc2nc1/C=C(\O)c1ccco1
inactive: dose: 60.0 mg/kg/injection, schedule: Q01DX005 (ip), vehicle: Klucel + Tween-80 100 % of control | dose: 120.0 mg/kg/injection, schedule: Q01DX005 (ip), vehicle: Klucel + Tween-80 94 % of control | dose: 240.0 mg/kg/injection, schedule: Q01DX005 (ip), vehicle: Klucel + Tween-80 94 % of control

CCOC(=O)/C(C#N)=N/Nc1ccc2cn[nH]c2c1
inactive: [1] 99 % of control | [2] 94 % of control | [3] 97 % of control

C=C(CCCCC)C(=O)/C=C/c1ccccc1
inactive: [4] 103 % of control | [5] 107 % of control | [6] 118 % of control

O=C1CCSC(=S)N1c1ccc(F)cc1
inactive: dose: 50.0 mg/kg/injection, schedule: Q01DX009 (ip), vehicle: suspension in saline 99 % of control | dose: 100.0 mg/kg/injection, schedule: Q01DX009 (ip), vehicle: suspension in saline 106 % of control | dose: 200.0 mg/kg/injection, schedule: Q01DX009 (ip), vehicle: suspension in saline 90 % of control

CN(C)c1ccc(N/C=C/C(=O)c2ccccc2O)cc1
inactive: dose: 100.0 mg/kg/injection, schedule: Q01DX001 (ip), vehicle: other 103 % of control | dose: 200.0 mg/kg/injection, schedule: Q01DX001 (ip), vehicle: other 100 % of control | dose: 400.0 mg/kg/injection, schedule: Q01DX001 (ip), vehicle: other 96 % of control

O=S(=O)(O)c1ccc(OCCCCCCCCOc2ccc(S(=O)(=O)O)cc2)cc1
inactive: [7] 112 % of control | [8] 109 % of control | [9] 100 % of control
